Source: publication doi:10.1101/2024.05.30.596569v1 (bioRxiv, 2024)
Converted amounts (≈) assume the structure as drawn. Values belong to the compound of their own block, whether it stands above or below them.

Assays:
[1] = tested on: A. baumannii ATCC 19606; settings: Mueller Hinton II broth, 5 × 10^5 cells mL^−1, 18h, turbidity 600 nm, triplicate
[2] = tested on: P. aeruginosa strains; settings: cited from earlier work
[3] = tested on: E.c K0416; assay: microbe, parasite or virus in culture; settings: Escherichia coli, K0416, read-out: Minimum inhibitory concentration, E.c K0416
[4] = tested on: Caco-2 cells
[5] = pH 7.4
[6] = tested on: E.c ATCC25922 ΔTolC; settings: Table S3, triplicate

Compound: C[C@@H](O)[C@H](NC(=O)[C@H]1NC(=O)[C@H]([C@@H](C)O)NC(=O)[C@H]2NC(=O)[C@H](CC(N)=O)NC(=O)[C@@H](N)Cc3c[nH]c4c(cccc34)OC2c2c[nH]c3cc(ccc23)C1CCCN)C(=O)N[C@@H](Cc1ccccc1)C(=O)O (stereo partly drawn) [WNWTKTF]
Minimum inhibitory concentration, Ab ATCC 19606 [1]: no activity against A. baumannii

Compound: murepavadin
MIC90 against P. aeruginosa strains [2]: 0.12 µg/mL

Compound: CC(C)NCC(O)COc1cccc2ccccc12 (stereo not drawn) [Propranolol]
A-B permeability (Caco-2) [4]: 38.0 10^-6 cm s^-1
B-A permeability (Caco-2) [4]: 17.2 10^-6 cm s^-1

Compound: CO[C@H]1/C=C/O[C@@]2(C)Oc3c(C)c(O)c4c(O)c(c(/C=N/N5CCN(C)CC5)c(O)c4c3C2=O)NC(=O)/C(C)=C\C=C\[C@H](C)[C@H](O)[C@@H](C)[C@@H](O)[C@@H](C)[C@H](OC(C)=O)[C@@H]1C [Rifampicin]
Distribution coefficient (log D), logD7.4 [5]: 1.12

Compound: CC(C)(O/N=C(\C(=O)N[C@@H]1C(=O)N2C(C(=O)[O-])=C(C[n+]3ccccc3)CS[C@H]12)c1csc(N)n1)C(=O)O [CZA, ceftazidime]
MIC [3]: 64 µg/mL (≈ 117 µM)

The next lines start with results.

MIC [3]: > 0.5 µg/mL
Compound: O=C(O)c1cn(C2CC2)c2cc(N3CCNCC3)c(F)cc2c1=O [CIP, ciprofloxacin]

MIC [3]: 4 µg/mL (≈ 8.38 µM)
Compound: CNC(C)C1CCC(N)C(OC2C(N)CC(N)C(OC3OCC(C)(O)C(NC)C3O)C2O)O1 (stereo not drawn) [GEN, gentamicin]
Minimum inhibitory concentration, E.c ATCC25922 ΔTolC [6]: 0.5 µg/mL (≈ 1.05 µM)
